Results published in patent US11026423B2, “Herbicidal compositions and methods” (SePRO Corporation, priority 2013, dated 2021).

What was measured:
[1] = tested on: weeds (total weed control); assay: Example 10 irrigated walnut, Stockton, Calif.: total weed control; assay type: in vivo; settings: fluridone 0.2 to 0.4 lb/ac
Experimental: An experiment with walnut was conducted during the months of December to the month of June the following year in Stockton, Calif. Plots were arranged as a randomized complete block with three replicates. Plots were 8 ft×8 ft (about 2.43 meters by meters)(1 tree/plot). The soil on the site is classified as a clay loam. […] The site received approximately four inches (about 10.16 cm) of rainfall in the first 35 DAT, and an additional 2.9 inches (about 7.366 cm) rainfall and 6.5 inches (about 16.51 cm) irrigation the next 124 days thereafter. Visually evaluations of weed control were made monthly on a 0 to 100% scale.

yellow nutsedge = assay: Example 6 Shafter almond orchard: yellow nutsedge control; assay type: in vivo, Cyperus esculentus L.
Experimental: (§1) Field trials were conducted in California to determine sweet almond (Prunus dulcis) tolerance to fluridone and efficacy of fluridone in an irrigated orchard environment. Trial locations included a two-year old almond stand in Kerman, Calif. and a six-year old stand in Shafter, Calif. The soil in both locations is classified as a sandy loam. Applications prior to emergence of weeds (PRE) of herbicides were made in the month of January in Kerman and in the month of January in Shafter. […] Rainfall (0.32 in (about 0.813 cm)) and irrigation (1.5 in (about 3.81 cm)) one day after PRE applications were used to incorporate herbicides into the soil at the Kerman and Shafter locations, respectively. Both sites were irrigated as needed during the growing season to avoid drought conditions. Visual evaluations of crop injury and weed control were made monthly on a 0 to 100% scale. Postemergent (POST) broadcast applications of a non-selective, contact herbicide was broadcast across all treatments in Kerman prior to the 90 days after treatment and 119 days after treatment (DAT) ratings. Thus, data from those ratings dates was not evaluated. No POST applications were made in Shafter.

hairy fleabane [2] = assay: Example 6 Shafter almond orchard: hairy fleabane control; assay type: in vivo, Conyza bonariensis; settings: 211 DAT, fluridone 0.4 and 0.8 lb/ac
Experimental: as §1

[3] = tested on: witchgrass (Panicum capillare L.); assay: Example 8 Elderwood orange orchard: witchgrass control; assay type: in vivo; settings: 168 DAT, three highest fluridone rates; indaziflam
Experimental: (§2) A field trial was conducted in California to evaluate tolerance of non-bearing “Cara Cara” orange (Citrus sinensis) to fluridone and the efficacy of fluridone in an irrigated orchard environment. The trial was initiated in the month of January in Elderwood, Calif. The soil on the trial site was classified as a clay. […] Rainfall (0.44 in. (about 1.12 cm)) that occurred in the first week following PRE application incorporated the herbicides into the soil. The site was irrigated as needed during the growing season to avoid drought conditions. Visual evaluations of crop injury and weed density were made on a 0 to 100% scale. Additionally, plant counts per plot of weed species present were conducted for each evaluation period.

[4] = tested on: crabgrass (Digitaria spp.); assay: Example 6 Kerman almond orchard: crabgrass control; assay type: in vivo; settings: 184 DAT, 0.4 and 0.8 lb fluridone/ac
Experimental: as §1

[5] = tested on: Palmer amaranth (Amaranthus palmeri); assay: Example 9 greenhouse: preemergence Palmer amaranth control under varying irrigation; assay type: in vivo; settings: fluridone 0.2 lb/ac, coarse sand soil, irrigation 0 to 1.0 inch
Experimental: An experiment was conducted beginning in the month of August in a greenhouse. The greenhouse was arranged as a randomized complete block with four replicates. A coarse sand soil was used to fill four inch diameter pots. […] Overhead irrigation occurred eight and 10 days after treatment, applying an additional 0.25 inch (abou 0.635 cm) of water to each pot. Palmer amaranth control was determined by counting seedlings in each pot weekly.

weeds = assay: Example 12 UC Davis almond orchard: weed control; assay type: in vivo; settings: 1 to 5 months after treatment, all treatment rates
Experimental: (§3) A field trial was conducted in northern California for weed control and safety in one peach orchand and two almond orchards. The herbicide applications were made between January and February when the tree crops were dormant.

hairy fleabane [6] = assay: Example 8 Elderwood orange orchard: hairy fleabane control; assay type: in vivo
Experimental: as §2

[7] = tested on: spotted spurge (Euphorbia maculate); assay: Example 6 Shafter almond orchard: spotted spurge control; assay type: in vivo; settings: 211 DAT, fluridone 0.4 and 0.8 lb/ac
Experimental: as §1

[8] = tested on: redmaids (Calandrinia sp.); assay: Example 7 Kerman vineyard: redmaids control; assay type: in vivo; settings: 58 DAT, fluridone 0.2, 0.4 and 0.8 lb/ac
Text: (§4) Trials were placed in grape vineyards located in Kerman and Kingsburg, Calif. The soil in both locations is classified as a sandy loam. Preemergent herbicide applications were made in the month of January in Kerman and in the month of March in Kingsburg. […] Additionally, indaziflam applied at 0.065 lb/ac was included at the Kingsburg site. […] Both sites were irrigated as needed during the growing season to avoid drought conditions. Visual evaluations of crop injury and weed control were made monthly on a 0 to 100% scale. Cultivation occurred in the row centers at the Kerman location following the 58 DAT evaluations, and therefore, the Kerman results following 58 DAT were not evaluated. No cultivation occurred in Kingsburg during the trial period.

[9] = tested on: sprangletop (Leptochloa sp.); assay: Example 6 Shafter almond orchard: sprangletop control; assay type: in vivo; settings: 211 DAT, three highest rates of fluridone
Experimental: as §1

[10] = tested on: yellow nutsedge (Cyperus esculentus L.); assay: Example 6 Kerman almond orchard: yellow nutsedge control; assay type: in vivo; settings: 184 DAT, 0.4 and 0.8 lb fluridone/ac
Experimental: as §1

weeds in walnut orchard = assay: Example 11 walnut orchard field trial: weed efficacy; assay type: in vivo
Experimental: A field trial was performed in a dormant 4th year walnut orchard (Chandler variety) located near Stockton, Calif. The trial was initiated in December for weed efficacy studies and crop tolerance studies. Plots were about 8 feet by about 18 feet (about 2.43 meters by about 5.49 meters) with one tree per plot arranged in a randomized complete block design with three replications. Fluridone, flumioxazin, Roundup, and glufosinate ammonium were tested.

Palmer amaranth = assay: Example 10 dryland cotton field, Jackson, Tenn.: Palmer amaranth control; assay type: in vivo, Amaranthus palmeri; settings: fluridone 0.1 to 0.5 lb/ac
Experimental: An experiment with cotton was conducted during the months of April to the month of June in Jackson, Tenn. Plots were arranged as a randomized complete block with four replicates. Plots were 6.3 ft by 30 ft (about 1.92 meteres by about 9.114 meters). The soil on the site was classified as a silt loam soil. […] The site received approximately four inches (about 10.16 cm) of rainfall in the first 35 days after treatment (DAT). Visually evaluations of Palmer amaranth control were made twice a month on a 0 to 100% scale.

[11] = tested on: hare barley, annual sowthistle, black medic, chickweed, and redstem filaree; assay: Example 12 Arbuckle almond orchard: weed control; assay type: in vivo; settings: approximately 1, 2 and 3 months after treatment
Experimental: as §3
Weed control and crop safety were evaluated at approximately 1, 2, and 3 months after treatment. Weed pressure was fairly heavy, and uniform over the trial site. Populations of hare barley, annual sowthistle, black medic, chickweed, and redstem filaree were recorded.

[12] = tested on: 'Thompson' grape (Vitis vinifera); assay: Example 7 field trials: grape tolerance; assay type: in vivo; settings: PRE application, Kerman and Kingsburg
Text: as §4

[13] = tested on: "Cara Cara" orange (Citrus sinensis); assay: Example 8 field trial: orange tolerance; assay type: in vivo; settings: Elderwood, PRE application, trial period
[14] = tested on: prostrate spurge (Euphorbia supine Raf.); assay: Example 8 Elderwood orange orchard: prostrate spurge control; assay type: in vivo; settings: 168 DAT, PRE
Experimental: as §2

cotton plants [15] = assay: Pot demonstration of safening in cotton (FIG. 4); assay type: in vivo; settings: three cotton plants planted, flumioxazin only (FIG. 4)
Text: Flumioxazin is another herbicide member of the PPO-inhibitor class that is commonly applied pre-emergent to control weeds, and has the chemical name 2-[7-fluoro-3,4-dihydro-3-oxo-4-(2-propynyl)-2H-1,4-benzoxazin-6-yl]-4,5,6,7-tetrahydro-1H-isoindole-1,3(2H)-dione. In certain embodiments of the present invention, flumioxazin can be applied to soil at a rate of about 0.015 pounds per acre to about 0.25 pounds per acre. In other embodiments, flumioxazin can be applied to soil at a rate of about 0.03 pounds per acre to about 0.25 pounds per acre. In another embodiment, flumioxazin can be applied to soil at a rate of about […] to about 0.2 pounds per acre.

cotton plants [16] = assay: Example 3 growth chamber trial, pre-emergent application on cotton; assay type: in vivo
Experimental: 0.1 L conical assay tubes were planted with a cotton or soybean seed in a sample of sandy loam soil. Seven tubes were prepared for each herbicide application rate. Application of a herbicide composition was performed after planting the seed and prior to the plant's emergence from the soil (i.e., pre-emergent or PRE). Approximately 0.15 inches of water was applied to each pot four hours after application. […] The greenhouse was maintained at 26±5° C. during the day and 11±1° C. during the night.

[17] = tested on: sweet almond (Prunus dulcis); assay: Example 6 field trials: almond tolerance; assay type: in vivo; settings: Kerman, any PRE herbicide application
Experimental: as §1

cotton [18] = assay: May field trial: phytotoxicity to cotton; settings: May planting field trial, pre-emergent, 1 and 9 weeks post treatment
Experimental: (§5) Cotton was planted in fields in May. The field was then over seeded with P. amaranth. […] Within 24 hours of application of the herbicide, 0.25 inches of rain was recorded. An additional planting of cotton, by hand, was conducted in August with multiple rates.

P. amaranth [19] = assay: Greenhouse trial: P. amaranth control across soil types and moisture conditions; assay type: in vivo, Amaranthus palmeri; settings: low moisture conditions across some soil types
Text: In addition to these field trials, greenhouse studies were also undertaken. The greenhouse studies evaluated the use of fluridone, fomesafen, and the combination of fluridone and fomesafen as well as the affect of soil types, and moisture conditions. Four soil types were examined: a predominantly clay soil, a sandy loam soil, a loamy peat soil, and a sandy soil. The moisture conditions evaluated were at 0.2 inches of water, and 1.5 inches of water.

cotton [20] = assay: Greenhouse trial: cotton response across soil types and moisture conditions; assay type: in vivo
Text: In addition to these field trials, greenhouse studies were also undertaken. […] Four soil types were examined: a predominantly clay soil, a sandy loam soil, a loamy peat soil, and a sandy soil.

P. amaranth [21] = assay: May field trial: weed control in cotton field; assay type: in vivo, Amaranthus palmeri; settings: May planting field trial, pre-emergent, 1 and 9 weeks post treatment
Experimental: as §5

Molecule: 1-methyl-3-phenyl-5-[3-(trifluromethyl)phenyl]-4(1H)-pyridone [fluridone]
- total weed control [1]: good total weed control
- yellow nutsedge control compared to 0.1 and 0.2 lb fluridone/ac (yellow nutsedge; 211 DAT, fluridone 0.4 and 0.8 lb/ac): significantly greater control
- yellow nutsedge control compared to flumioxazin (yellow nutsedge; fluridone applied at every rate): significantly greater than flumioxazin
- hairy fleabane control compared to 0.1 and 0.2 lb fluridone/ac (hairy fleabane [2]): significantly greater control
- control of witchgrass [3]: 100%
- crabgrass control greater than flumioxazin [4]: 10%
- preemergent Palmer amaranth control vs amount of irrigation [5]: increasing the amount of irrigation increases preemergent control
- weed control (weeds): good weed control
- hairy fleabane control (hairy fleabane [6]): Neither fluridone nor indaziflam effectively controlled
- spotted spurge control compared to 0.1 and 0.2 lb fluridone/ac [7]: significantly greater control
- redmaids control greater than flumioxazin [8]: 13.5%
- sprangletop control compared to flumioxazin [9]: significantly greater control than flumioxazin
- yellow nutsedge control compared to flumioxazin [10]: similar
- weeds observed in plots (weeds in walnut orchard; 129 DAT, lower rates): Some weeds were observed
- weeds observed in plots (weeds in walnut orchard; 159 DAT, fluridone applied at lower rates): lambsquarter, bindweed, spurge and knotweed were observed
- Palmer amaranth control (Palmer amaranth): good control of Palmer amaranth
- control of all weeds present [11]: ~100%

Molecule: Cc1ccc2c(c1)[C@H](Nc1nc(N)nc(C(C)F)n1)[C@@H](C)C2 (mixture of isomers) [indaziflam, N-[(1R,2S)-2,3-dihydro-2,6-dimethyl-1H-inden-1-yl]-6-[(1RS)-1-fluoroethyl]-1,3,5-triazine-2,4-diamine]
- phytotoxicity [12]: Phytotoxicity was not observed
- phytotoxicity [13]: did not contribute to phytotoxicity
- prostrate spurge control [14]: 95%
- control of witchgrass [3]: 100%
- hairy fleabane control (hairy fleabane [6]): Neither fluridone nor indaziflam effectively controlled

Molecule: C#CCN1C(=O)COc2cc(F)c(N3C(=O)C4=C(CCCC4)C3=O)cc21 [flumioxazin, 2-[7-fluoro-3,4-dihydro-3-oxo-4-(2-propynyl)-2H-1,4-benzoxazin-6-yl]-4,5,6,7-tetrahydro-1H-isoindole-1,3(2H)-dione]
- emergence of cotton plants from the soil (cotton plants [15]): only one emerged from the soil
- phytotoxicity [12]: Phytotoxicity was not observed
- crop stand (number of viable plants) (cotton plants [16]; 0.05 lb/A flumioxazin, seven tubes): one surviving plants out of seven
- growth stage / growth stunting (cotton plants [16]; 26 days after treatment, flumioxazin 0.05 lb/A, scale 0-3): the most growth stunting
- injury to cotton plants (cotton plants [16]; application rates greater than 0.025 lb/A flumioxazin): significantly injured
- cotyledons with excessive wrinkling and brown spotting due to herbicide injury (cotton plants [16]; flumioxazin alone 0.05 lb/A, 26 days after treatment): all of the cotyledons show brown spotting
- lethality to cotton plants (cotton plants [16]; flumioxazin at the highest rates (FIG. 15)): fatal to cotton plants
- phytotoxicity [17]: Phytotoxicity was not observed
- weeds observed in plots (weeds in walnut orchard; 129 DAT, lower rates): Some weeds were observed

Molecule: CS(=O)(=O)NC(=O)c1cc(Oc2ccc(C(F)(F)F)cc2Cl)ccc1[N+](=O)[O-] [fomesafen, 5-[2-chloro-4-(trifluoromethyl)phenoxy]-N-(methylsulfonyl)-2-nitrobenzamide]
- phytotoxicity (cotton [18]): no phytotoxicity was observed
- P. amaranth control (P. amaranth [19]): not able to provide complete P. amaranth control
- growth of treated cotton plants (cotton [20]; 4 weeks after planting (FIG. 3A, 3B)): stunting effect on cotton
- stunting (cotton [20]; less than ideal growing conditions, compared to fluridone and fluridone/fomesafen treatments): some stunting was observed
- control of P. amaranth (P. amaranth [21]): showed control of P. amaranth
